One may read the pIC50 as the negative decadic logarithm of the IC50, by convention in mol/L.

Drawing on patent US10208044B2, “ACC inhibitors and uses thereof” (Gilead Apollo, LLC, priority 2013, dated 2019), this text covers IC50 for four molecules.

The subject of one experiment is ACC1. Particulars: ACC1 isolated from rat, mouse, monkey and human; cited from earlier work.
The subject of experiment [1] is ACC2. The following applies: ACC2 isolated from rat, mouse, monkey and human; cited from earlier work.
Experiment [2] deals with ACC2 (Homo sapiens (Human), UniProt O00763). Kind of experiment: in vitro ACC2 inhibition assay (ADP-Glo). The class given is biochemical. Particulars: 5 nM ACC2, 20 μM ATP, 20 μM acetyl-CoA. How it is done:
An exemplary procedure for the in vitro ACC inhibition assay, which can be used to determine the inhibitory action of compounds of the invention toward either ACC1 or ACC2, follows. The ADP-Glo™ Kinase Assay kit from Promega is used. The ADP-Glo™ Kinase Assay is a luminescent ADP detection assay to measure enzymatic activity by quantifying the amount of ADP produced during an enzyme reaction. The assay is performed in two steps; first, after the enzyme reaction, an equal volume of ADP-Glo™ Reagent is added to terminate the reaction and deplete the remaining ATP. Second, the Kinase Detection Reagent is added to simultaneously convert ADP to ATP and allow the newly synthesized ATP to be measured using a luciferase/luciferin reaction. Luminescence can be correlated to ADP concentrations by using an […]. The detailed procedure is as follows. 50 μL of the compound being tested (600 uM in DMSO) is added to a 384-well dilution plate. The compound is diluted 1:3 in succession in DMSO for each row for 11 wells. 0.5 μL ACC2 working solution is added to 384-well white Optiplate assay plate. 0.5 μL diluted compound solution in each column from step 2 is added to the assay plate, each row containing 2 replicates. For the last 2 rows, add 0.5 μL negative control (DMSO) in one row and 0.5 μL positive control (compound I-97) in the other. The plates are incubated at room temperature for 15 minutes. […] Plates are incubated at room temperature for 40 minutes, then read on a Perkin Elmer EnVision 2104 plate reader for luminescence as Relative Light Units (RLU).
Data for each concentration, as well as the positive and negative controls are averaged, and the standard deviation calculated. Percent inhibition is calculated by the formula: 100× (average negative control−compound)/(average negative control−average positive control). The IC50 for each compound is calculated by fitting the data with a non-linear regression equation: Y=Bottom+(Top-Bottom)/(1+10^((Log IC50-X)*HillSlope)), where X is the log of compound concentration and Y is percent inhibition. […]
For orientation: ADP-Glo first removes unused ATP, then detects ADP through luciferase.

The structures appear in SMILES notation. pIC50: −log10 of the molar value.

Chain of ACC2 (Homo sapiens (Human), UniProt O00763) (O00763 whole entry, species assumed): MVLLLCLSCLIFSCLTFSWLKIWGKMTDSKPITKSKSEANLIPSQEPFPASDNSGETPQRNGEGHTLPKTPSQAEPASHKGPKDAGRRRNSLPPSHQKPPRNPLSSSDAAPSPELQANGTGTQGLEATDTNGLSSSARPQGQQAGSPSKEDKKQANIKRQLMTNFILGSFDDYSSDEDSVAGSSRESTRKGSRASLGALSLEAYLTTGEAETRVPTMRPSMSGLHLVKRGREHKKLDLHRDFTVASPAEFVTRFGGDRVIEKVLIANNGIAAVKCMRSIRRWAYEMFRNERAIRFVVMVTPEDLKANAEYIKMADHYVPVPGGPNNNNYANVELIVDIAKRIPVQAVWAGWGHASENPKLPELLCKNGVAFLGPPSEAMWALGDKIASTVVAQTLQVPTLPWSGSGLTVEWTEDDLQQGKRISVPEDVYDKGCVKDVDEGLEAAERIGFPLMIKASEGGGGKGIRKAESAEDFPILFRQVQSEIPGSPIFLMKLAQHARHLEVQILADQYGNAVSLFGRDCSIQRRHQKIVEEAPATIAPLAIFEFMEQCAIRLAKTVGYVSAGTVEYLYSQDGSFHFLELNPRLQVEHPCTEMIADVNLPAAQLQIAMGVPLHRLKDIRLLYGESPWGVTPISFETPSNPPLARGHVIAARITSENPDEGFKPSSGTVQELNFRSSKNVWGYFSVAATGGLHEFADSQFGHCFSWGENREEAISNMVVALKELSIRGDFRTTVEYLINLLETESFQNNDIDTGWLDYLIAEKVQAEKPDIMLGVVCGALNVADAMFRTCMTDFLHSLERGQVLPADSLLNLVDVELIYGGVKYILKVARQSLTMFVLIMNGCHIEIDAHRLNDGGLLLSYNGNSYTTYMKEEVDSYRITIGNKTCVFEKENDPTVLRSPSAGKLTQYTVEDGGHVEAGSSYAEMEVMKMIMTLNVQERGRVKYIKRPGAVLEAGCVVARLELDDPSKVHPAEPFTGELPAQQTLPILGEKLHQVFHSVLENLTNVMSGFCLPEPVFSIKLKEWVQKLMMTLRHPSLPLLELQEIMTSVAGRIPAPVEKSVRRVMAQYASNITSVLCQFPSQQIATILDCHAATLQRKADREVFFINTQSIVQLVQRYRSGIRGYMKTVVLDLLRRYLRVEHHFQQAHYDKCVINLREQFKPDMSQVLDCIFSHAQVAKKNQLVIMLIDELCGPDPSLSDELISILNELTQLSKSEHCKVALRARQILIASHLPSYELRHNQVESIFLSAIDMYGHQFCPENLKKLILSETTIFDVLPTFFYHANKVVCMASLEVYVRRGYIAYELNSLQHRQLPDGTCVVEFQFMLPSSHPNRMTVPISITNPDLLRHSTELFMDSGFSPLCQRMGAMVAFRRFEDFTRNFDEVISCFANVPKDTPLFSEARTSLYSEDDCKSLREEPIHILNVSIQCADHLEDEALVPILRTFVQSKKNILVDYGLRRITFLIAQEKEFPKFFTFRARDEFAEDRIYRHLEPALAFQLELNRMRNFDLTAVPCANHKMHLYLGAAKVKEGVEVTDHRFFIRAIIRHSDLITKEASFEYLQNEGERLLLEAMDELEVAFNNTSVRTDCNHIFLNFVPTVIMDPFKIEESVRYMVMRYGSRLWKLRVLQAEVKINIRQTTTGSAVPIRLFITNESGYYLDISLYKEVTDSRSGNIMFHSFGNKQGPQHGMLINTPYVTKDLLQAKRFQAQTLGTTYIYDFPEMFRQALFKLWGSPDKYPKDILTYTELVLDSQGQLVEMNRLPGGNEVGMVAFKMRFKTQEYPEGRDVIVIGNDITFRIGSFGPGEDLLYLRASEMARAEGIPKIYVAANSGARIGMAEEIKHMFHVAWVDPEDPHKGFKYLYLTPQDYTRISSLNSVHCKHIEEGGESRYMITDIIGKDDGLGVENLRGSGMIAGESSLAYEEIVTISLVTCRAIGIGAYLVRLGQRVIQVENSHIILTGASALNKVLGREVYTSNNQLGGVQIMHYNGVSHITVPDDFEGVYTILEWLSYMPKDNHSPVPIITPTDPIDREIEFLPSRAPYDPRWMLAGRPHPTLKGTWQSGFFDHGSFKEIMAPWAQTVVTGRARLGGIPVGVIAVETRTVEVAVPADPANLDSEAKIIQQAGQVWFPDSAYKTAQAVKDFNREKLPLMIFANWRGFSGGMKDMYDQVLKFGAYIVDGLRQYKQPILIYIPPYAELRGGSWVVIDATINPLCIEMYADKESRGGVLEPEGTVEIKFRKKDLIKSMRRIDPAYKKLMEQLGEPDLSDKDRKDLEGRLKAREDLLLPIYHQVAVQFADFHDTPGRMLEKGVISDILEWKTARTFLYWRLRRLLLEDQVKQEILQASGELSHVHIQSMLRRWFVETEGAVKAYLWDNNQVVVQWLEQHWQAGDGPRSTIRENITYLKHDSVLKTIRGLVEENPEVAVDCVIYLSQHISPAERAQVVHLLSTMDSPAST

For `O=C(c1c2ccccc2cc2ccccc12)N1CCC(N2CCC[C@@H](C(=O)N3CCOCC3)C2)CC1` [CP-640186], the pIC50 with ACC1 and in the experiment on ACC2 [1] was approximately 7.22 each time.
For `COc1ccc(F)cc1[C@H](Cn1c(=O)n(C(C)(C)C(=O)O)c(=O)c2cc(-c3ncco3)ccc21)OC1CCOCC1` [Compound I-28, (R)-2-(1-(2-(5-fluoro-2-methoxyphenyl)-2-((tetrahydro-2H-pyran-4-yl)oxy)ethyl)-6-(oxazol-2-yl)-2,4-dioxo-1,2-dihydroquinazolin-3(4H)-yl)-2-methylpropanoic acid], the pIC50 at ACC2 [2] is 4.30 to 4.70.
Still for that read-out and setting: next, `COc1ccc(F)cc1[C@H](Cn1c(=O)n(C(C)(C)C(N)=O)c(=O)c2cc(-c3ncco3)ccc21)OC1CCOCC1` [Compound I-29, (R)-2-(1-(2-(5-fluoro-2-methoxyphenyl)-2-((tetrahydro-2H-pyran-4-yl)oxy)ethyl)-6-(oxazol-2-yl)-2,4-dioxo-1,2-dihydroquinazolin-3(4H)-yl)-2-methylpropanamide]: 4.30 to 4.70; `COc1ccc(F)cc1[C@H](Cn1c(=O)n(C(C)(C)C(=O)O)c(=O)c2cc(Br)ccc21)OC1CCOCC1` [Compound I-30, (R)-2-(6-bromo-1-(2-(5-fluoro-2-methoxyphenyl)-2-((tetrahydro-2H-pyran-4-yl)oxy)ethyl)-2,4-dioxo-1,2-dihydroquinazolin-3(4H)-yl)-2-methylpropanoic acid]: 4.30 to 4.70.
